Measured values taken from patent US20240049707A1, “PESTICIDE COMPOSITIONS OF LICOCHALCONE C” (METABOLIC INSIGHTS LTD., priority 2020, published 2024).

Test system: Fusarium oxysporum
Experiment: Microplate based screening of bioactivity against Fusarium oxysporum
Assay type: cell-based
Conditions: 10 μl of 250 ppm solution + 40 μl inoculum, activity grade x repeats x days of activity/252 x 100
Experimental: Diluted in DMSO Licochalcone C was added to microplate wells and mixed with freshly prepared spore suspension and growth of the fungus, starting from frozen spores, was monitored using the plate reader and by visual inspection. […]
Microplate Preparation for Licochalcone C Bioactivity Experiment: • 1) Take a stock solution of purified 1% Licochalcone C in DMSO from the −20 freezer and thaw it on the bench. • 2) Take 1 μl of stock solution of 1% Licochalcone C and dilute up to 250 ppm with 39 μl of water. • 3) Take 10 μl of the diluted (250 ppm) Licochalcone C solution into the wells of the microplate using a multi-pipette. • 4) Add 40 μl of vigorously mixed spore suspension inoculum to the wells of the microplate using a multi-pipette. • 5) Seal the plate with transparent sealer • 6) Shake the plate for 10 min at 2000 RPM to mix the materials with the hyphae suspension • 7) Centrifugate the plate at 1000RCF for is and stop to collect the liquid at the bottom of the plate • 8) Keep the microplate on the bench until it is read by the plate reader • 9) Read the plate using the plate reader • 10) Collect the plates on the bench • 11) Insert collected plates to a plastic box with cloth cover and put the box in the incubator at 25° C. […]

COc1c(/C=C/C(=O)c2ccc(O)cc2)ccc(O)c1CC=C(C)C [Licochalcone C, (E)-3-[4-hydroxy-2-methoxy-3-(3-methylbut-2-enyl)phenyl]-1-(4-hydroxyphenyl)prop-2-en-1-one]
Relative Activity value (%): 25%
